Assay results reported in patent US20250354999A1, “BIOMARKERS OF LYSOSOMAL STORAGE DISEASE” (Genzyme Corporation, priority 2022, published 2025).
Entries after “also recorded” stand apart in the source; their conditions may differ.

Experiments:
Format in all cases: in vivo, human
CD63 [1] = experiment: CD63 level in plasma of Fabry patients on treatment (Olink profiling; Sanofi-Venglustat Phase II ACT/LTS trial)
Description: CD63 was measured by Olink® profiling, as described below, using the Olink® Target96 Neuro-Exploratory panel (Olink Proteomics AB, Uppsala, Sweden) according to the manufacturer's instructions.
Protein detection can be performed using Olink® (Olink Proteomics AB, Uppsala, Sweden) profiling in accordance with the manufacturer's recommended protocols (for exemplary methods, see, e.g., Assarsson et al., PLoS ONE (2014) 9(4):e95192; and Jabbari et al., Journal of Neurology, Neurosurgery & Psychiatry (2019) 90:768-773). The Proximity Extension Assay (PEA) technology used for the Olink® protocol has been well described (Assarsson et al., 2014, supra), and enables 92 analytes per panel to be analysed simultaneously, using 1 μL of each sample. In brief, pairs of oligonucleotide-labelled antibody probes bind to their targeted protein, and if the two probes are brought in close proximity the oligonucleotides will hybridize in a pair-wise manner. The addition of a DNA polymerase leads to a proximity-dependent DNA polymerization event, generating a unique PCR target sequence. The resulting DNA sequence can subsequently be detected and quantified using a microfluidic real-time PCR instrument (Biomark HD, Fluidigm). Data is then quality controlled and normalized using an internal extension control and an inter-plate control, to adjust for intra- and inter-run variation. The final assay read-out is presented in Normalized Protein expression (NPX) values, which is an arbitrary unit on a log 2-scale where a high value corresponds to a higher protein expression. All assay validation data (e.g., detection limits, intra- and inter-assay precision data, etc.), experimental protocols, and data processing are available on the manufacturer's website (www.olink.com).
The ACT/LTS samples were taken from the Sanofi-Venglustat Phase II trial. This trial consisted only of male patients. The Sanofi-Venglustat Phase II trial was a longitudinal study, and patient plasma was collected at 6 set intervals: Baseline (0 weeks), 12 weeks, 26 weeks, 52 weeks, 104.2 weeks, and 156.4 weeks. There are missing timepoints for some patients. During this trial, all patients were treated with venglustat (a substrate reduction therapy-SRT).
Cohort 1 is a collection of plasma samples provided by Dr. Gavin Oudit from the University of Alberta. Briefly, these plasma samples were from a mix of male and female patients with ages ranging from 25 to 68. They were non-longitudinal samples (e.g. 1 sample per patient), and the plasma samples were a mix of treated Fabry patients (enzyme replacement therapy-ERT), untreated Fabry patients, and healthy control subjects.
Cohort 2 is a collection of plasma samples provided by Dr. Michael Mauer from the University of Minnesota. […]

GL3 = GL3 level in plasma of Fabry patients on venglustat (ESI-LC-MS/MS); settings: Fabry disease patients, venglustat clinical trial over time
Description: (§1) Glycosphingolipids (lyso-GL1, GL3, and lyso-GL3) were measured by ESI-LC-MS/MS according to the method described in Murugesan et al., Am J Hematol. (2016) 91(11):1082-1089. In brief, 20 μL aliquots of plasma were added to 1 mL of chloroform:methanol (2:3) in an Eppendorf tube, mixed and then centrifuged. Supernatant was removed and extracted with chloroform (220 μL) and water (520 μL) by mixing and centrifugation. The upper phase was re-extracted with chloroform and added to the lower phase. The combined sample was dried, resuspended in 100 μL methanol:water (9:1) and injected into an LC-MS/MS system for tandem mass spectroscopic analysis. Separation of glycosphingolipids and other matrix components was achieved using UPLC under gradient conditions with two mobile phases: 0.1% formic acid in water; and 0.1% formic acid in acetonitrile. Mass spectrometry (MS) was performed in select ion monitoring mode, typically using the parent (M+H^+) ion transition (e.g. m/z 462.5>282.4 for lyso-GL1). Assays were calibrated using known glycosphingolipid standards (dimethylpsychosine, 13C6-labelled lyso-GL3 (GelbChem), and C17-GL3 (Matreya LLC, cat no. 1523) as internal standards for lyso-GL1, lyso-GL3, and GL3 respectively).
(§2) The ACT/LTS samples were taken from the Sanofi-Venglustat Phase II trial. This trial consisted only of male patients. […]

lyso-GL3 = lyso-GL3 level in plasma of Fabry patients on venglustat (ESI-LC-MS/MS)
Description: as §1, §2

CD63 [2] = experiment: CD63 level in CSF of type 3 Gaucher disease patients on treatment (Olink Explore; LEAP trial); settings: GD3 patients, baseline, 26 weeks and 52 weeks on combination treatment of venglustat and imiglucerase
Description: For the measurement of protein levels in CSF, the following protocol was employed: Biomarker expression in CSF was measured using four Olink® Explore panels (Cardiometabolic, Inflammation, Neurology, and Oncology), as described, e.g., by Wik et al. (“Proximity Extension Assay in Combination with NextGeneration Sequencing for High-throughput Proteome-wide Analysis, 2021, Mol Cell Proteomics 20, 100168). Briefly, 10 μL of CSF samples and Olink controls were placed into a 384-well Sample Source Plate and then diluted 1:10, 1:100, 1:1000 and 1:100,000 in 384-well Sample Diluent Plates using Mosquito and Dragonfly liquid handlers (both from SPT Labtech). For immunoreaction, these diluted samples were mixed with the Olink® probes (DNA oligo-conjugated antibodies) in 384-well Incubation Plates using the Mosquito handler and incubated at 4° C. for 16-24 hours. The following day, reagent mixtures for the first PCR amplification step (PCR1 step) were added to the immunoreaction mixtures using the Dragonfly handler, and PCR1 reaction for the pre-amplification step was conducted using ProFlex PCR System (Applied Biosciences). […] The four libraries were analyzed by Next Generation Sequencing using NovaSeq 6000 (Illumina). […]

[3] = Fabry disease patients vs healthy controls, during the trial period

CC(C)(NC(=O)O[C@@H]1CN2CCC1CC2)c1csc(-c2ccc(F)cc2)n1 [venglustat, (3S)-1-azabicyclo[2.2.2]octan-3-yl N-{2-[2-(4-fluorophenyl)-1,3-thiazol-4-yl]propan-2-yl}carbamate]
return of CD63 to control levels (CD63 [1]; [3]): do not return to control levels during the trial period | response of CD63 to treatment (CD63 [1]; Fabry disease patients, baseline to 156.4 weeks on treatment): decrease over a period of 30 months towards a healthy level; also recorded: show a response to treatment | time at which CD63 response to treatment is observed (CD63 [1]; Fabry disease patients, venglustat treatment): 12 weeks | first significant decrease in CD63 (estimated marginal mean, log 2) (CD63 [1]; Fabry disease patients, venglustat treatment, baseline to 156 weeks): ≤ 26 week | response of GL3 to treatment (GL3): show a response to treatment | return of lyso-GL3 to control levels (lyso-GL3; [3]): do not return to control levels during the trial period | response of lyso-GL3 to treatment (lyso-GL3; Fabry disease patients, venglustat clinical trial over time): show a response to treatment | change of CD63 levels in CSF on treatment (CD63 [2]): consistently led to a decrease in CD63 levels
